# Laboratory results: the NIST ThermoML archive (doi:10.1016/j.jct.2008.04.005)
# Numbers after ± are expanded uncertainties.
# Experiment: molar enthalpy of vaporization or sublimation
# Conditions: 298.15 K, Liquid
SMILES,molar enthalpy (Calvet microcalorimetry),molar enthalpy (Vacuum drop calorimetry)
"Cc1ccc(C)s1 [2,5-dimethylthiophene]",9.61 ± 0.43 kcal/mol,–
"CC(=O)c1cc(C)sc1C [3-acetyl-2,5-dimethylthiophene]",–,14.7 ± 0.621 kcal/mol
